Experiments:
Assay in all cases: relative viability (nuclei count vs DMSO), 5 days (fraction); higher = more cells survive
NCI-H1355 = tested on: NCI-H1355
Outline: (§1)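 Lung cancer cell lines were pin-tool dosed in 1536-well plates on the day after seeding, with either a lone drug or a fixed anchor-drug dose plus five library-drug doses (not always all listed) in √10 steps. Nuclei were counted on 4× images after 5 days. Relative viability is the ratio of treated-well to vehicle-well nuclei counts, with each value a median of duplicate plates.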

NCI-H1437 = tested on: NCI-H1437
Outline: as §1

HARA = tested on: HARA
Outline: as §1

HCC-44 = tested on: HCC-44
Outline: as §1

NCI-H2342 = tested on: NCI-H2342
Outline: as §1

NCI-H2228 = tested on: NCI-H2228
Outline: as §1

NCI-H1734 = tested on: NCI-H1734
Outline: as §1

NCI-H2170 = tested on: NCI-H2170
Outline: as §1

NCI-H1792 = tested on: NCI-H1792
Outline: as §1

HCC-827 = tested on: HCC-827
Outline: as §1

EKVX = tested on: EKVX
Outline: as §1

NCI-H2009 = tested on: NCI-H2009
Outline: as §1

NCI-H647 = tested on: NCI-H647
Outline: as §1

HCC-366 = tested on: HCC-366
Outline: as §1

NCI-H2405 = tested on: NCI-H2405
Outline: as §1

NCI-H661 = tested on: NCI-H661
Outline: as §1

NCI-H2087 = tested on: NCI-H2087
Outline: as §1

NCI-H1395 = tested on: NCI-H1395
Outline: as §1

SK-MES-1 = tested on: SK-MES-1
Outline: as §1

LOU-NH91 = tested on: LOU-NH91
Outline: as §1

LC-2-ad = tested on: LC-2-ad
Outline: as §1

SK-LU-1 = tested on: SK-LU-1
Outline: as §1

BEN = tested on: BEN
Outline: as §1

For `CC(C)Oc1cc(Nc2nc(N[C@@H](C)c3ccc(F)cn3)ncc2Cl)n[nH]1` [AZ23] + CC(=O)c1c(C)c2cnc(Nc3ccc(N4CCNCC4)cn3)nc2n(C2CCCC2)c1=O [Palbociclib] (partner 0.5 µM), the relative viability (NCI-H1355; first compound 0.01 µM) was 0.437, the relative viability (NCI-H1355; first compound 0.03162 µM) was 0.455 and the relative viability (NCI-H1355; first compound 0.3162 µM) was 0.375. It also gave a relative viability (NCI-H1437; first compound 0.01 µM) of 0.304, a relative viability (NCI-H1437; first compound 0.03162 µM) of 0.324 and a relative viability (NCI-H1437; first compound 0.3162 µM) of 0.335. It also gave a relative viability (HARA; first compound 0.01 µM) of 0.254, a relative viability (HARA; first compound 0.03162 µM) of 0.156 and a relative viability (HARA; first compound 0.3162 µM) of 0.213. For the same molecule, the relative viability (HCC-44; first compound 0.01 µM) was 0.982, the relative viability (HCC-44; first compound 0.03162 µM) was 0.994 and the relative viability (HCC-44; first compound 0.3162 µM) was 0.93. The relative viability (NCI-H2342; first compound 0.01 µM) was 0.516, the relative viability (NCI-H2342; first compound 0.03162 µM) was 0.511 and the relative viability (NCI-H2342; first compound 0.3162 µM) was 0.509. The relative viability (NCI-H2228; first compound 0.01 µM) was 0.809, the relative viability (NCI-H2228; first compound 0.03162 µM) was 0.811 and the relative viability (NCI-H2228; first compound 0.3162 µM) was 0.907. For the same molecule, the relative viability (NCI-H1734; first compound 0.01 µM) was 0.317, the relative viability (NCI-H1734; first compound 0.03162 µM) was 0.366 and the relative viability (NCI-H1734; first compound 0.3162 µM) was 0.359. For the same molecule, the relative viability (NCI-H2170; first compound 0.01 µM) was 0.451, the relative viability (NCI-H2170; first compound 0.03162 µM) was 0.645 and the relative viability (NCI-H2170; first compound 0.3162 µM) was 0.473. The relative viability (NCI-H1792; first compound 0.01 µM) was 0.737, the relative viability (NCI-H1792; first compound 0.03162 µM) was 0.617 and the relative viability (NCI-H1792; first compound 0.3162 µM) was 0.645. The relative viability (HCC-827; first compound 0.01 µM) was 0.47, the relative viability (HCC-827; first compound 0.03162 µM) was 0.535 and the relative viability (HCC-827; first compound 0.3162 µM) was 0.471. It also gave a relative viability (EKVX; first compound 0.01 µM) of 0.392, a relative viability (EKVX; first compound 0.03162 µM) of 0.414 and a relative viability (EKVX; first compound 0.3162 µM) of 0.358. The relative viability (NCI-H2009; first compound 0.01 µM) was 0.2, the relative viability (NCI-H2009; first compound 0.03162 µM) was 0.185 and the relative viability (NCI-H2009; first compound 0.3162 µM) was 0.196. The relative viability (NCI-H647; first compound 0.01 µM) was 0.408, the relative viability (NCI-H647; first compound 0.03162 µM) was 0.405 and the relative viability (NCI-H647; first compound 0.3162 µM) was 0.466. It also gave a relative viability (HCC-366; first compound 0.01 µM) of 0.303, a relative viability (HCC-366; first compound 0.03162 µM) of 0.513 and a relative viability (HCC-366; first compound 0.3162 µM) of 0.458. The relative viability (NCI-H2405; first compound 0.01 µM) was 0.585, the relative viability (NCI-H2405; first compound 0.03162 µM) was 0.52 and the relative viability (NCI-H2405; first compound 0.3162 µM) was 0.589. It also gave a relative viability (NCI-H661; first compound 0.01 µM) of 0.367, a relative viability (NCI-H661; first compound 0.03162 µM) of 0.391 and a relative viability (NCI-H661; first compound 0.3162 µM) of 0.349. For the same molecule, the relative viability (NCI-H2087; first compound 0.01 µM) was 0.255, the relative viability (NCI-H2087; first compound 0.03162 µM) was 0.21 and the relative viability (NCI-H2087; first compound 0.3162 µM) was 0.22. The relative viability (NCI-H1395; first compound 0.03162 µM) was 0.694, the relative viability (NCI-H1395; first compound 0.3162 µM) was 0.641 and the relative viability (SK-MES-1; first compound 0.03162 µM) was 0.291. The relative viability (SK-MES-1; first compound 0.3162 µM) was 0.328, the relative viability (LOU-NH91; first compound 0.01 µM) was 0.574 and the relative viability (LOU-NH91; first compound 0.03162 µM) was 0.544. The relative viability (LOU-NH91; first compound 0.3162 µM) was 0.546, the relative viability (LC-2-ad; first compound 0.01 µM) was 0.593 and the relative viability (LC-2-ad; first compound 0.03162 µM) was 0.529. The relative viability (LC-2-ad; first compound 0.3162 µM) was 0.501, the relative viability (SK-LU-1; first compound 0.03162 µM) was 0.416 and the relative viability (SK-LU-1; first compound 0.3162 µM) was 0.414. The relative viability (BEN; first compound 0.01 µM) was 0.475, the relative viability (BEN; first compound 0.03162 µM) was 0.458 and the relative viability (BEN; first compound 0.3162 µM) was 0.455.
